Measurements as given in US20100227836A1, “PARENTERAL ADMINISTRATION OF A GLUCOSAMINE” (THE JOHNS HOPKINS UNIVERSITY, priority 2008, published 2010).

Columns and labels:
[1] = tested on: surgically manipulated rat knees (osteoarthritis); assay: Experimental model of osteoarthritis in rodents, intraarticular injection, cartilage histology (safranin-O); type: in vivo; details: 2 mM, transcutaneous intraarticular injections weekly for three weeks
Description: For example, in an experimental model of osteoarthritis in rodents, rat knees were surgically manipulated to obtain histological manifestations of osteoarthritis (Janusz et al., Osteoarth, Cart. 10:785-791, 2002). Four weeks […], injured joints were untreated, or treated with a PBS control, a 2 mM glucosamine solution or a 1:1 mixture of 2 mM glucosamine solution and CSMA-aldehyde (chondroitin sulfate methacrylate) (Wang et al., Nat. Mater. 6:385-392, 2007). Treatments were transcutaneous, intraarticular injections weekly for three weeks.

[2] = following nasogastric intake of 20 mg/kg/day of GlcN; cited from earlier work
[3] = tested on: cell growth, matrix production and gene expression; details: narrow window; cited from earlier work
[4] = tested on: transforming growth factor β1 (TGF-β1) expression; details: cited from earlier work

## N[C@H]1C(O)O[C@H](CO)[C@@H](O)[C@@H]1O (stereo partly drawn) [glucosamine, Glucosamine]
[1]
  cartilage development and organization across treatment groups: best developed and well organized
[1]; four weeks after surgery, compared to PBS control and untreated control joints
  cartilage development in treated joints (histology, safranin-O): Florid cartilage development
[2]
  level in serum: ~6 µM
  level in synovial fluid: ~0.5 µM
[3]
  concentration window with beneficial effect on cell growth, matrix production and gene expression: no more than 2 mM
[4]
  TGF-β1 expression: upregulated
